The assay deals with GLP-1 Receptor (Homo sapiens, UniProt P43220). In words: GLP-1R agonist cAMP stimulation assay (HEK293/GLP1R/CRE-LUC cells, Cisbio cAMP dynamic 2 kit). The settings on record: Table 3, HEK293/GLP1R/CRE-LUC cells, 30 min. The assay is classed as cell-based. Here is the method: Activation of GLP-1 receptor is known to stimulate cyclic AMP (cAMP) production in cells which indicates primary coupling to the G as subunit of the G protein heterotrimeric complex.
Chain of GLP-1 Receptor (P43220 24-463, species assumed): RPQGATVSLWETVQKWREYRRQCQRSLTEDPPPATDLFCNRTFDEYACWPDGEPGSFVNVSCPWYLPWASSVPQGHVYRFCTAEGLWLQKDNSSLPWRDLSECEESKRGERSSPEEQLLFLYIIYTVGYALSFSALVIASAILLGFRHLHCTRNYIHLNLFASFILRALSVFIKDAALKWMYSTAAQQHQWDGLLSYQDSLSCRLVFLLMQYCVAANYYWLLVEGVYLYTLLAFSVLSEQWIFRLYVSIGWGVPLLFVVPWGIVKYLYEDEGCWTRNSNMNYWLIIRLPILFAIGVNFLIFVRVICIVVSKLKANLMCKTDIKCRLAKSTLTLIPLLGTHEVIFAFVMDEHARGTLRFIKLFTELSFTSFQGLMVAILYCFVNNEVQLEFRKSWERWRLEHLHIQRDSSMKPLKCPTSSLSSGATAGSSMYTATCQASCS
To optimize functional activity directed toward G as coupling, a HEK293/CRE-Luc cell line developed by HDB stably expressing the GLP-1 Receptor was used. 200× concentration of compound working solutions were prepared (Agilent Technologies Bravo) with ½ log serial dilution in 384-well Echo LDV plate (Labcyte, CatOLP-0200). 50 nL/well 200× concentration of compound working solutions were moved to 384-well white low volume plate (Greiner, Cat4784075) using Labcyte ECH0550.1×10^5 cells/mL HEK293/GLP1R/CRE-LUC (HD Biosciences) cell suspensions prepared with assay buffer (DPBS containing 0.5 mM IBMX (Sigma, Cat15879) and 0.10 BSA (GENVIEW, Cat4FA016-100g)), 10 uL cell suspensions were added to each well of previous generated assay plate which already contains 50 n^1 compound at 200 xconcentration using ThermioFisher Multidrop Combi (1000 cells/well). Seal the plate and incubate at 37 with […] for 30 m.
After incubation the cAMP assay signal was generated using cAMP dynamic 2 Kit (Cisbio). 5 μL cAMP-d2 working solution was added to each well, followed with 5 L Anti-cAMP antibody-cryptate working solution added to each well using ThermoFisher Multidrop Combi. Incubate at room temperature for 1 hour protected from light. Read the fluorescence at 665 and 615 nm with Reader PerkinElmer EnVision. % oActivity=100%×(mean RLU of test sample−mean RLU of vehicle control)/(mean RLU of MAX control−mean RLU of vehicle control)
In general, EC50 refers to the concentration that produces a half-maximal response. Read a high EC50 as lower potency in that assay. For `Cc1cc(-n2nc3c(c2-n2ccn(-c4ccc(CS(C)(=N)=O)cc4F)c2=O)[C@H](C)N(C(=O)c2cc4cc(C5CCOCC5)ccc4n2[C@@]2(c4noc(=O)[nH]4)C[C@@H]2C)CC3)cc(C)c1F` (single isomer, unassigned) [Compound 174], the EC50 is 0.067 nM.
In the case of `Cc1cc(-n2nc3c(c2-n2ccn(-c4ccc(CS(C)(=N)=O)cc4F)c2=O)[C@H](C)N(C(=O)c2cc4cc(C5CCOCC5)ccc4n2[C@@]2(c4noc(=O)[nH]4)C[C@@H]2C)CC3)cc(C)c1F` (single isomer, unassigned) [Compound 175], the 50% effective concentration (EC50) turned out to be 0.025 nM.
As for `Cc1cc(-n2nc3c(c2-n2ccn(-c4ccc(C5(S(C)(=N)=O)CC5)cc4)c2=O)[C@H](C)N(C(=O)c2cc4cc(C5CCOCC5)ccc4n2[C@@]2(c4noc(=O)[nH]4)C[C@@H]2C)CC3)cc(C)c1F` (single isomer, unassigned) [Compound 176], the 50% effective concentration (EC50) is 0.024 nM.
`Cc1cc(-n2nc3c(c2-n2ccn(-c4ccc(C5(S(C)(=N)=O)CC5)cc4)c2=O)[C@H](C)N(C(=O)c2cc4cc(C5CCOCC5)ccc4n2[C@@]2(c4noc(=O)[nH]4)C[C@@H]2C)CC3)cc(C)c1F` (single isomer, unassigned) [Compound 177] returned an EC50 of 0.026 nM.
Under `Cc1cc(-n2nc3c(c2-n2ccn(-c4ccc(S(=N)(=O)CC5CC5)cc4F)c2=O)[C@H](C)N(C(=O)c2cc4cc(C5CCOCC5)ccc4n2[C@@]2(c4noc(=O)[nH]4)C[C@@H]2C)CC3)cc(C)c1F` (single isomer, unassigned) [Compound 178] stands 0.094 nM; under `Cc1cc(-n2nc3c(c2-n2ccn(-c4ccc(C5CCS(=N)(=O)CC5)cc4)c2=O)[C@H](C)N(C(=O)c2cc4cc(C5CCOCC5)ccc4n2[C@@]2(c4noc(=O)[nH]4)C[C@@H]2C)CC3)cc(C)c1F` (single isomer, unassigned) [Compound 182], 0.077 nM; under `Cc1cc(-n2nc3c(c2-n2ccn(-c4ccc(S(=N)(=O)CC5CC5)cc4F)c2=O)[C@H](C)N(C(=O)c2cc4cc([C@H]5CCOC(C)(C)C5)ccc4n2[C@@]2(c4noc(=O)[nH]4)C[C@@H]2C)CC3)cc(C)c1F` (single isomer, unassigned) [Compound 184], 0.01 nM.
The molecule `Cc1cc(-n2nc3c(c2-n2ccn(-c4ccc5c(c4F)CCN=S5(C)=O)c2=O)[C@H](C)N(C(=O)c2cc4cc([C@H]5CCOC(C)(C)C5)ccc4n2[C@@]2(c4noc(=O)[nH]4)C[C@@H]2C)CC3)cc(C)c1F` (single isomer, unassigned) [Compound 185] yielded a 50% effective concentration (EC50) of 0.016 nM.
`Cc1cc(-n2nc3c(c2-n2ccn(-c4ccc5c(c4F)CCN=S5(C)=O)c2=O)[C@H](C)N(C(=O)c2cc4cc([C@H]5CCOC(C)(C)C5)ccc4n2[C@@]2(c4noc(=O)[nH]4)C[C@@H]2C)CC3)cc(C)c1F` (single isomer, unassigned) [Compound 186] had a 50% effective concentration (EC50) of 0.0047 nM.
For `Cc1cc(-n2nc3c(c2-n2ccn(-c4ccc5c(c4F)CN=S5(C)=O)c2=O)[C@H](C)N(C(=O)c2cc4cc([C@H]5CCOC(C)(C)C5)ccc4n2[C@@]2(c4noc(=O)[nH]4)C[C@@H]2C)CC3)cc(C)c1F` (single isomer, unassigned) [Compound 187], the midpoint of the response, the EC50, lay at 0.01 nM.
Under `Cc1cc(-n2nc3c(c2-n2ccn(-c4ccc5c(c4F)CN=S5(C)=O)c2=O)[C@H](C)N(C(=O)c2cc4cc([C@H]5CCOC(C)(C)C5)ccc4n2[C@@]2(c4noc(=O)[nH]4)C[C@@H]2C)CC3)cc(C)c1F` (single isomer, unassigned) [Compound 188] stands 0.017 nM; under `Cc1cc(-n2ccn(-c3c4c(nn3-c3cc(C)c(F)c(C)c3)CCN(C(=O)c3cc5cc([C@H]6CCOC(C)(C)C6)ccc5n3[C@@]3(c5noc(=O)[nH]5)C[C@@H]3C)[C@H]4C)c2=O)c(F)cc1S(=N)(=O)C1CC1` (single isomer, unassigned) [Compound 189], 0.047 nM.
As to `Cc1cc(-n2ccn(-c3c4c(nn3-c3cc(C)c(F)c(C)c3)CCN(C(=O)c3cc5cc([C@H]6CCOC(C)(C)C6)ccc5n3[C@@]3(c5noc(=O)[nH]5)C[C@@H]3C)[C@H]4C)c2=O)c(F)cc1S(=N)(=O)C1CC1` (single isomer, unassigned) [Compound 190], the 50% effective concentration (EC50) was 0.026 nM.
In the case of `Cc1cc(-n2nc3c(c2-n2ccn(-c4ccc5c(c4F)CN=S5(=O)C4CC4)c2=O)[C@H](C)N(C(=O)c2cc4cc([C@H]5CCOC(C)(C)C5)ccc4n2[C@@]2(c4noc(=O)[nH]4)C[C@@H]2C)CC3)cc(C)c1F` (single isomer, unassigned) [Compound 191] it was 0.0096 nM.
In the case of `Cc1cc(-n2nc3c(c2-n2ccn(-c4ccc5c(c4F)CN=S5(=O)C4CC4)c2=O)[C@H](C)N(C(=O)c2cc4cc([C@H]5CCOC(C)(C)C5)ccc4n2[C@@]2(c4noc(=O)[nH]4)C[C@@H]2C)CC3)cc(C)c1F` (single isomer, unassigned) [Compound 192] it was 0.02 nM.
Under `CN=S(=O)(c1cc(F)c(-n2ccn(-c3c4c(nn3-c3cc(C)c(F)c(C)c3)CCN(C(=O)c3cc5cc([C@H]6CCOC(C)(C)C6)ccc5n3[C@@]3(c5noc(=O)[nH]5)C[C@@H]3C)[C@H]4C)c2=O)cc1C)C1CC1` (single isomer, unassigned) [Compound 193] stands 0.1 nM.
For `CN=S(=O)(c1cc(F)c(-n2ccn(-c3c4c(nn3-c3cc(C)c(F)c(C)c3)CCN(C(=O)c3cc5cc([C@H]6CCOC(C)(C)C6)ccc5n3[C@@]3(c5noc(=O)[nH]5)C[C@@H]3C)[C@H]4C)c2=O)cc1C)C1CC1` (single isomer, unassigned) [Compound 194], the 50% effective concentration (EC50) is 0.046 nM.
`CN=S(=O)(c1ccc(-n2ccn(-c3c4c(nn3-c3cc(C)c(F)c(C)c3)CCN(C(=O)c3cc5cc([C@H]6CCOC(C)(C)C6)ccc5n3[C@@]3(c5noc(=O)[nH]5)C[C@@H]3C)[C@H]4C)c2=O)c(F)c1C)C1CC1` (single isomer, unassigned) [Compound 196] yielded a concentration for a half-maximal effect (EC50) of 0.039 nM.
Under `Cc1cc(-n2nc3c(c2-n2ccn(-c4ccc5c(c4F)CCN=S5(=O)C4CC4)c2=O)[C@H](C)N(C(=O)c2cc4cc([C@H]5CCOC(C)(C)C5)ccc4n2[C@@]2(c4noc(=O)[nH]4)C[C@@H]2C)CC3)cc(C)c1F` (single isomer, unassigned) [Compound 197] stands 0.018 nM; under `Cc1cc(-n2nc3c(c2-n2ccn(-c4ccc5c(c4F)CCN=S5(=O)C4CC4)c2=O)[C@H](C)N(C(=O)c2cc4cc([C@H]5CCOC(C)(C)C5)ccc4n2[C@@]2(c4noc(=O)[nH]4)C[C@@H]2C)CC3)cc(C)c1F` (single isomer, unassigned) [Compound 198], 0.023 nM.
Under `Cc1cc(-n2nc3c(c2-n2ccn(-c4cc5c(cc4F)S(C)(=O)=NC5)c2=O)[C@H](C)N(C(=O)c2cc4cc([C@H]5CCOC(C)(C)C5)ccc4n2[C@@]2(c4noc(=O)[nH]4)C[C@@H]2C)CC3)cc(C)c1F` (single isomer, unassigned) [Compound 199] stands 0.01 nM.
Under `Cc1cc(-n2nc3c(c2-n2ccn(-c4cc5c(cc4F)S(C)(=O)=NC5)c2=O)[C@H](C)N(C(=O)c2cc4cc([C@H]5CCOC(C)(C)C5)ccc4n2[C@@]2(c4noc(=O)[nH]4)C[C@@H]2C)CC3)cc(C)c1F` (single isomer, unassigned) [Compound 200] stands 0.01 nM.
Molecule `Cc1cc(-n2nc3c(c2-n2ccn(-c4ccc5c(c4Cl)CN=S5(C)=O)c2=O)[C@H](C)N(C(=O)c2cc4cc([C@H]5CCOC(C)(C)C5)ccc4n2[C@@]2(c4noc(=O)[nH]4)C[C@@H]2C)CC3)cc(C)c1F` (single isomer, unassigned) [Compound 201] registered an EC50 of 0.011 nM.
`Cc1cc(-n2nc3c(c2-n2ccn(-c4ccc5c(c4Cl)CN=S5(C)=O)c2=O)[C@H](C)N(C(=O)c2cc4cc([C@H]5CCOC(C)(C)C5)ccc4n2[C@@]2(c4noc(=O)[nH]4)C[C@@H]2C)CC3)cc(C)c1F` (single isomer, unassigned) [Compound 202]: the response was half-maximal at 0.018 nM (EC50).
Under `CN=S(=O)(c1ccc(-n2ccn(-c3c4c(nn3-c3cc(C)c(Cl)c(C)c3)CCN(C(=O)c3cc5cc([C@H]6CCOC(C)(C)C6)ccc5n3[C@@]3(c5noc(=O)[nH]5)C[C@@H]3C)[C@H]4C)c2=O)c(F)c1)C1CC1` (single isomer, unassigned) [Compound 203] stands 0.032 nM; under `CN=S(=O)(c1ccc(-n2ccn(-c3c4c(nn3-c3cc(C)c(F)c(C)c3)CCN(C(=O)c3cc5cc([C@H]6CCOC(C)(C)C6)ccc5n3[C@@]3(c5noc(=O)[nH]5)C[C@@H]3C)[C@H]4C)c2=O)c(Cl)c1)C1CC1` (single isomer, unassigned) [Compound 204], 0.039 nM.
In the case of `CN=S(=O)(c1ccc(-n2ccn(-c3c4c(nn3-c3cc(C)c(F)c(C)c3)CCN(C(=O)c3cc5cc([C@H]6CCOC(C)(C)C6)ccc5n3[C@@]3(c5noc(=O)[nH]5)C[C@@H]3C)[C@H]4C)c2=O)c(Cl)c1)C1CC1` (single isomer, unassigned) [Compound 205] it was 0.072 nM; in that of `CC1=Cc2cc(-n3ccn(-c4c5c(nn4-c4cc(C)c(F)c(C)c4)CCN(C(=O)c4cc6cc([C@H]7CCOC(C)(C)C7)ccc6n4[C@@]4(c6noc(=O)[nH]6)C[C@@H]4C)[C@H]5C)c3=O)ccc2S(C)(=O)=N1` (single isomer, unassigned) [Compound 206], 0.02 nM.

Source of the values: patent US12291529B2, “Heterocyclic GLP-1 agonists” (Gasherbrum Bio, Inc., priority 2023, dated 2025).
